Assays:
rat [1] = settings: Subchronic oral toxicity in rodents, sprague dawley, Gavage/Intubation, dose end: 90 day, group: systemic
rat [2] = settings: Combined chronic toxicity/carcinogenicity, Oral, Feed, dose end: 104 week, group: systemic
mouse [3] = settings: Carcinogenicity; cd1; Oral; Feed; dose end: 78 week; group: systemic; systemic / organ weight / spleen / nos
rat [4] = settings: Subchronic oral toxicity in rodents, sprague dawley, Feed, dose end: 13 week, group: systemic
dog [5] = settings: Chronic toxicity, beagle, Oral, [Not Specified], dose end: 52 week, group: systemic
mouse [6] = settings: Subchronic oral toxicity in rodents, cd1, Feed, dose end: 90 day, group: systemic, systemic / in life observation / body weight / body weight + systemic / in life observation / body weight / body weight gain
dog [7] = settings: Subchronic oral toxicity in nonrodent, beagle, Feed, dose end: 13 week, group: systemic
rat [8] = settings: Multigenerational reproductive toxicity study, wistar, Oral, Feed, dose end: 2 generation
mouse [9] = settings: Subchronic oral toxicity in rodents, cd1, Feed, dose end: 13 week, group: systemic, systemic / in life observation / body weight / body weight gain
dog [10] = settings: Subchronic oral toxicity in nonrodent, beagle, Feed, dose end: 13 week, group: systemic, systemic / in life observation / body weight / body weight gain
rat [11] = settings: Subchronic oral toxicity in rodents, sprague dawley, Feed, dose end: 3 month, group: systemic, systemic / organ weight / liver / relative to body weight + systemic / pathology microscopic / liver / hypertrophy + systemic / pathology …
mouse [12] = settings: Carcinogenicity, cd1, Oral, Feed, dose end: 18 month, group: systemic
rat [13] = settings: Combined chronic toxicity/carcinogenicity, other, Oral, Feed, dose end: 24 month, group: systemic
dog [14] = settings: Chronic toxicity, beagle, Oral, Feed, dose end: 52 week, group: systemic
[15] = systemic / clinical chemistry / globulins / globulins + systemic / clinical chemistry / protein / protein + systemic / hematology / …
[16] = systemic / in life observation / body weight / body weight + systemic / in life observation / food consumption / food consumption
[17] = systemic / pathology microscopic / adrenal gland / vacuolization + systemic / clinical chemistry / cholesterol / cholesterol + systemic / …
[18] = systemic / organ weight / thymus / nos
[19] = systemic / organ weight / thymus / nos + systemic / hematology / platelet / platelet + systemic / organ weight / testes / nos
[20] = systemic / in life observation / body weight / body weight + systemic / in life observation / body weight / body weight gain
[21] = systemic / in life observation / body weight / body weight + systemic / in life observation / body weight / body weight gain + systemic / …
[22] = group: offspring, systemic / in life observation / clinical signs / grip strength
[23] = group: offspring, systemic / in life observation / clinical signs / grip strength + systemic / in life observation / body weight / offspring (pup) weight + …
[24] = group: parental, systemic / in life observation / body weight / body weight gain + systemic / in life observation / food consumption / food consumption + …
[25] = group: reproductive, reproductive / reproductive performance / estrous cycle / length
[26] = systemic / hematology / lymphocyte / lymphocyte + systemic / organ weight / kidney / nos + systemic / organ weight / testes / nos + systemic…
[27] = systemic / organ weight / testes / nos
[28] = systemic / clinical chemistry / gamma glutamyl transferase (ggt) / gamma glutamyl transferase (ggt) + systemic / clinical chemistry / …
[29] = systemic / hematology / anemia / anemia - hemolytic + systemic / hematology / methemoglobin / methemoglobin + systemic / hematology / …

O=C(O)C(F)(F)C(F)(F)C(F)(F)C(F)(F)C(F)(F)F [PFHxA]
LOAEL (rat [1]; [15]): > 200 mg/kg/day
NOAEL (rat [1]; [15]): ≥ 200 mg/kg/day
LEL (rat [1]; [16]): 10 mg/kg/day
NEL (rat [1]; [16]): < 10 mg/kg/day

CNC(=N[N+](=O)[O-])NCC1CCOC1 (configuration not stated) [Dinotefuran]
NEL (rat [2]; systemic / organ weight / uterus / relative to brain weight + systemic / organ weight / brain / relative to body weight + systemic / organ …): 1330 mg/kg/day
LOAEL (rat [2]; systemic / pathology microscopic / kidney / ulcer + systemic / pathology microscopic / kidney / dilatation): 991 mg/kg/day
NOAEL (rat [2]; systemic / pathology microscopic / kidney / ulcer + systemic / pathology microscopic / kidney / dilatation + systemic / pathology …): 99.7 mg/kg/day
LEL (mouse [3]): 3 mg/kg/day
LOAEL (mouse [3]): 3 mg/kg/day
NEL (mouse [3]): < 3 mg/kg/day
NOAEL (mouse [3]): < 3 mg/kg/day
LOAEL (rat [4]; systemic / pathology microscopic / adrenal gland / vacuolization): 336 mg/kg/day
NEL (rat [4]; [17]): 34 mg/kg/day
NOAEL (rat [4]; [17]): 34 mg/kg/day
LEL (rat [4]; systemic / pathology microscopic / adrenal gland / vacuolization + systemic / organ weight / liver / relative to body weight): 336 mg/kg/day
LOAEL (dog [5]; [18]): 20 mg/kg/day
NOAEL (dog [5]; [18]): < 20 mg/kg/day
LEL (dog [5]; [19]): 20 mg/kg/day
NEL (dog [5]; [19]): < 20 mg/kg/day
LEL (mouse [6]): 10600 mg/kg/day
LOAEL (mouse [6]): 10600 mg/kg/day
NEL (mouse [6]): 4440 mg/kg/day
NOAEL (mouse [6]): 4440 mg/kg/day
LOAEL (dog [7]; [20]): 58 mg/kg/day
NOAEL (dog [7]; [20]): < 58 mg/kg/day
LEL (dog [7]; [21]): 58 mg/kg/day
NEL (dog [7]; [21]): < 58 mg/kg/day
NEL (rat [8]; [22]): 269 mg/kg/day
NOAEL (rat [8]; [22]): 269 mg/kg/day
LEL (rat [8]; [23]): 935 mg/kg/day
LOAEL (rat [8]; [23]): 935 mg/kg/day
LEL (rat [8]; [24]): 822 mg/kg/day
LOAEL (rat [8]; [24]): 822 mg/kg/day
NEL (rat [8]; [24]): 241 mg/kg/day
NOAEL (rat [8]; [24]): 241 mg/kg/day
LEL (rat [8]; [25]): 907 mg/kg/day
LOAEL (rat [8]; [25]): 907 mg/kg/day
NEL (rat [8]; [25]): 268 mg/kg/day
NOAEL (rat [8]; [25]): 268 mg/kg/day

COc1cccc(C(=O)NN(C(=O)c2cc(C)cc(C)c2)C(C)(C)C)c1C [Methoxyfenozide]
LEL (mouse [9]): 1150 mg/kg/day
LOAEL (mouse [9]): 1150 mg/kg/day
NEL (mouse [9]): 428 mg/kg/day
NOAEL (mouse [9]): 428 mg/kg/day
LEL (dog [10]): 0.6 mg/kg/day
LOAEL (dog [10]): > 198 mg/kg/day
NEL (dog [10]): < 0.6 mg/kg/day
NOAEL (dog [10]): ≥ 198 mg/kg/day
LEL (rat [11]): 353 mg/kg/day
LOAEL (rat [11]): 353 mg/kg/day
NEL (rat [11]): 69.3 mg/kg/day
NOAEL (rat [11]): 69.3 mg/kg/day
LOAEL (mouse [12]; [26]): > 1020 mg/kg/day
NOAEL (mouse [12]; [26]): ≥ 1020 mg/kg/day
LEL (mouse [12]; [27]): 10 mg/kg/day
NEL (mouse [12]; [27]): < 10 mg/kg/day
LEL (rat [13]; [28]): 411 mg/kg/day
NEL (rat [13]; [28]): 10.2 mg/kg/day
LOAEL (rat [13]; systemic / in life observation / mortality / mortality + systemic / organ weight / liver / absolute + systemic / organ weight / liver / …): 1040 mg/kg/day
LOAEL (dog [14]; [29]): 1150 mg/kg/day
NEL (dog [14]; [29]): 9.8 mg/kg/day
NOAEL (dog [14]; [29]): 106 mg/kg/day
LEL (dog [14]; systemic / hematology / platelet / platelet + systemic / hematology / erythrocyte (rbc) count differential / erythrocyte (rbc)): 106 mg/kg/day
